Where a SMILES comes first, the peptide text is derived from it. Bridges are numbered along the chain shown (N, C = ends). [ ]: non-standard residue; d: D form. Phe(3,4-F2) = N[C@@H](Cc1ccc(F)c(F)c1)C(=O)O; dPhe(4-F) = N[C@H](Cc1ccc(F)cc1)C(=O)O
Experiments:
human EphA2 = human EphA2 (Homo sapiens, UniProt P29317); test: SPR binding kinetics to EphA2; conditions: Biacore T200, 25 °C, HBS-EP+ buffer pH 7.4 with 0.1% DMSO, biotinylated human EphA2 on CAP chip (1050 RU), single cycle kinetics, five concentrations, 1:1 model
Sequence of human EphA2 (P29317 24-976): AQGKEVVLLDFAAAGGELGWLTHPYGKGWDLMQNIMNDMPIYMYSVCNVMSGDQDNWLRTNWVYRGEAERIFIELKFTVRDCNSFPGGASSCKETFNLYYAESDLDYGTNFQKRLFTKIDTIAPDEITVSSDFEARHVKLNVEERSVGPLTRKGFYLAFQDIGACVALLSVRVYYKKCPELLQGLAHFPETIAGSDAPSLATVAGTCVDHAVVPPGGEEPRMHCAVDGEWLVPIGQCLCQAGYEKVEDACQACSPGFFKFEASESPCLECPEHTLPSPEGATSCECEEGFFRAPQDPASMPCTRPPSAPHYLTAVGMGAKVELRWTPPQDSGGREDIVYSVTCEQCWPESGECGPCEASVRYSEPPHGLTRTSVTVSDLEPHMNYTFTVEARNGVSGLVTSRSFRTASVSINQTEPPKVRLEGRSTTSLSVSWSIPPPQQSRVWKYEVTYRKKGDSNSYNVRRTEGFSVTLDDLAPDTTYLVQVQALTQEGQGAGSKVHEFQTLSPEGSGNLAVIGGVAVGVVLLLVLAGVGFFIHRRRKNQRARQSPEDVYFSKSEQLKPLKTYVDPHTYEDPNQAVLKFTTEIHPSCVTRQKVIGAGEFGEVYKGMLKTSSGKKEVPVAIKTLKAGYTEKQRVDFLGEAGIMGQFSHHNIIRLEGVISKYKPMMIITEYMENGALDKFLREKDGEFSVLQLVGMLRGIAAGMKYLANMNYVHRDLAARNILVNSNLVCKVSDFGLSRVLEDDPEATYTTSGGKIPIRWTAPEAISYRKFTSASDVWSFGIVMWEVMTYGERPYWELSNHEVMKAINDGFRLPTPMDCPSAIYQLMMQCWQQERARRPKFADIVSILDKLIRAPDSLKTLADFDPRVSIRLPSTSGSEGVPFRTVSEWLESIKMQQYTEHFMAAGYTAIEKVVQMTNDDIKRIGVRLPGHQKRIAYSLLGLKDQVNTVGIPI
Procedure: The cDNAs was detected by QuantStudio™ real-time PCR system (Applied Biosystems), then PCR was recovered by phusion® high-fidelity DNA polymerase and transcribed in vitro to construct a mRNA library rich in BAM complex(or EphA2) binding sequences to prepare for the next round of screening. Starting with the second round of screening, six more negative selections were added before positive selections to remove unwanted beads binders. Finally, the cDNAs recovered in the sixth(or fifth) round was deep sequencing using NovaSeq 6000 system (Ilumina).
General procedures for solid-phase synthesis of selected peptides
In this study, macrocyclic peptides and fluorinated macrocyclic peptides were synthesized by standard Fmoc solid phase peptide synthesis (SPPS). Firstly, a mixture (0.3 mmol Fmoc-Gly-OH and 0.3 mmol HOBT dissolved in 8 mL DMF and 0.5 mL DIC) was prepared, and 0.5 g Rink Amide MBHA resin was added to the mixture, and then reacted under nitrogen protection for 1.5 h. The resin was filtered and washed at least three times with DMF and DCM, and a deprotective agent (DMF solution containing 20% piperidine) was added to remove the Fmoc protective group. Then a new mixture (0.9 mmol Fmoc-AA-OH and 0.9 mmol HOBT dissolved in 10 mL DMF and 1 mL DIC) was prepared and condensation reaction was carried out under nitrogen protection for 1 hour.
By repeating the steps of deprotection and condensation reaction, the desired peptide was finally obtained, and the bromoacetyl group was connected to the N-terminal free α-amino group of the resin peptide. […]
The binding kinetics between the selected peptides and EphA2 were tested by SPR using a Biacore T200 instrument (GE Healthcare) at 25 °C. […] Five different concentrations of peptides were injected at the flow rate of 30 μL/min, and their kinetic constants were determined. The binding kinetic was quantified by single cycle kinetic method. Finally, the binding sensorgrams was analyzed by Biacore evaluation software, and the standard 1:1 model was used for fitting. […]

BAM complex = tested on: T1, BAM complex; test: SPR binding kinetics to BAM complex; design: species or system E. coli; conditions: Biacore T200, 25 °C, multi-cycle kinetics, 1:1 model
T1 construct: made in house; host or cells: E. coli BL21(DE3), strain obtained from Xinmiao Fu, Fujian Normal University
T1 sequence (P0A903 25-344): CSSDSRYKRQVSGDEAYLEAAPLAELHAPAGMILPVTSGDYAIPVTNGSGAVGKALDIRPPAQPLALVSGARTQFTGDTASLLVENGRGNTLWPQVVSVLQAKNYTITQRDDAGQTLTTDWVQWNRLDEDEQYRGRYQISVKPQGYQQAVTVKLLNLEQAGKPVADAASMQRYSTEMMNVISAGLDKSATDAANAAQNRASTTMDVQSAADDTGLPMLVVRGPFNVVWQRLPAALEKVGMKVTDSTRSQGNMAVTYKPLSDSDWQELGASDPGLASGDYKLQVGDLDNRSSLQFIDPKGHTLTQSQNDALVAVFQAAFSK
T1 sequence (P0AC02 20-245, further chain): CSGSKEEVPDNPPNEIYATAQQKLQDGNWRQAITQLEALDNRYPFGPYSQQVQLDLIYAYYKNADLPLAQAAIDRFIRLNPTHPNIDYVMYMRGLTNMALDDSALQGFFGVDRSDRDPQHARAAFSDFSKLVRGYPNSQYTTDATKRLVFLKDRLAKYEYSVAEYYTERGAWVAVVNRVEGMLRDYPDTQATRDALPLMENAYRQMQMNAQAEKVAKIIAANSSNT
T1 sequence (P0A937 20-113, further chain): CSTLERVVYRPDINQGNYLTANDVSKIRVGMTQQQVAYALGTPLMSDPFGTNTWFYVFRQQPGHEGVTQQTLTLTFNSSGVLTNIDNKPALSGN
T1 sequence (P77774 20-392, further chain): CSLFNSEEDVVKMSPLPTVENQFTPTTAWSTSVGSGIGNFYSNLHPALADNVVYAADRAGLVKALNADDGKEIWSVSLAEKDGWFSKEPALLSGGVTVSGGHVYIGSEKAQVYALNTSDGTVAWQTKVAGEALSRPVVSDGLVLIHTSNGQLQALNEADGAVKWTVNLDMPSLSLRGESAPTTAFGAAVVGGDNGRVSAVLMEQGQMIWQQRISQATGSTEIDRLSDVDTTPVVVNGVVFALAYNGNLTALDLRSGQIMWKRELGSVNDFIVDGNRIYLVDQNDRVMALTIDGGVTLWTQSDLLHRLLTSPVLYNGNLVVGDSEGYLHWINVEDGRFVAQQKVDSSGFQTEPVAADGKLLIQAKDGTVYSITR
Procedure: Expression and purification of the BAM complex
The E. coli BL21(DE3) cells containing all five Bam proteins (BamA, B, C, D, and E) was obtained from Xinmiao Fu of Fujian Normal University and used for expression and purification.
The BL21(DE3) cells plated onto LB-ampicillin agar plates and incubated overnight at 37 °C. A 20 mL culture incubated overnight at 37°C was prepared from a single colony in LB medium supplemented with 100 mg/L of ampicillin. The strain was inoculated into fresh LB liquid medium according to the inoculation ratio of 1:100 and incubated at 37 ℃ for about 4 hours until the OD600 reached about 1.0. The temperature of the incubator was set to 20 ℃ and then cultured for 1 hour, and 200 uM IPTG was added to induce overnight. First of all, the induced cells were collected by freezing centrifuge 3000 rpm for 30 min, and the collected cells were resuspended with Buffer 1 (20 mM Tris-HCl, pH 8.0, 150 mM NaCl), and then crushed low temperature and pressure with a high pressure crusher. The broken cells were centrifuged 1 hour at 4 °C for18000 rpm by high speed centrifuge. After centrifugation at 4 °C 18000 rpm for 1 hour, and the supernatant was discarded and the cell membrane was collected. The collected cell membranes were resuscitated with Buffer 2 (20 mM Tris-HCl, pH 8.0, 300 mM NaCl, 1% DDM) and then dissolved at 4 °C for 2 hours. After dissolving the membrane, the supernatant was collected by high speed centrifuge at 18,000 rpm. The 20 mM imidazole was added to the supernatant and incubated with a 2 mL Ni-NTA sefinoseTM resin column for 1 hour. After incubation, 10 column volumes were washed with Buffer 3 (20 mM Tris-HCl, pH 8.0, 300 mM NaCl, 0.025%DDM) containing 30 mM and 50 mM imidazole respectively. Then, the protein was eluted with Buffer 3 containing 200 mM imidazole, and the eluted protein was collected. Finally, using the 20-fold molar excess of EZ-LinkTM Sulfo-NHS-LC-LC-Biotin for BAM complex, and incubate reaction on ice for 2 hours. After the protein labeling is completed, dialysis is used to purify the labeled protein to remove the remaining unreacted and hydrolyzed biotin reagents. […]
The mobile phase was 0.1% TFA aqueous solution / acetonitrile containing 0.1%
TFA. The purified macrocyclic peptides and fluorinated macrocyclic peptides were confirmed by electrospray ionization mass spectrometry (ESI-MS).
Binding kinetics analysis by SPR
The binding kinetics between the selected peptides and EphA2 were tested by SPR using a Biacore T200 instrument (GE Healthcare) at 25 °C. In this study, the running buffer was HBS-EP+ buffer (10 mM HEPES-KOH (pH 7.4), 150 mM NaCl, 50 μM EDTA, 0.05% Tween 20) containing 0.1% DMSO. Biotin capture kit (GE Healthcare) was used to fix human EphA2 on the surface of Biacore CAP chip with a density of 1050 RU. Five different concentrations of peptides were injected at the flow rate of 30 μL/min, and their kinetic constants were determined. The binding kinetic was quantified by single cycle kinetic method. Finally, the binding sensorgrams was analyzed by Biacore evaluation software, and the standard 1:1 model was used for fitting.
The binding kinetics between the selected peptides and BAM complex were tested by SPR using […]
a Biacore T200 instrument (GE Healthcare) at 25 °C. In this study, the running buffer was HBS-EP+ […]
0.1% DMSO. The Series S Sensor Chip CM5 was used to fix BAM complex on the surface of Biacore CM5 chip with a density of 9500 RU. The binding mode was multi-cycle kinetics (one sample concentration one cycle). Finally, the binding sensorgrams was analyzed by Biacore evaluation software, and the standard 1:1 model was used for fitting.
Preliminary evaluation of the antibacterial activity of macrocyclic peptides against E. coli […]
Remove the previously preserved E. coli W3110 cells from the -80 °C refrigerator, scrape a little, inoculate it into 1 mL LB liquid medium, and culture overnight in 37°C shaker. The strain was […]

Kd (human EphA2)	Molecule	ka for BAM complex (BAM complex; CM5 chip)	Kd (BAM complex; HBS-EP+ buffer pH 7.4 with 0.1% DMSO, BAM complex on CM5 chip (9500 RU))
9.9 nM	CC[C@H](C)[C@@H]1NC(=O)[C@@H](Cc2ccc(F)cc2)NC(=O)CSC[C@@H](C(=O)NCC(N)=O)NC(=O)[C@H](Cc2ccc(O)cc2)NC(=O)[C@H](CCCNC(=N)N)NC(=O)[C@H](CCC(N)=O)NC(=O)[C@H]([C@@H](C)O)NC(=O)[C@H]([C@@H](C)O)NC(=O)[C@H](Cc2ccc(F)c(F)c2)NC(=O)[C@H](CCCCN)NC(=O)[C@H](CC(C)C)NC(=O)[C@H](C)NC(=O)[C@H](Cc2ccc(O)cc2)NC(=O)[C@H](Cc2c[nH]c3ccccc23)NC1=O [Ep-F1] ({CH2CO}-[dPhe(4-F)]IWYALK[Phe(3,4-F2)]TTQRYCG-NH2; thioether N-14)		
0.29 nM	Ep-F2-M2: variant of Ep-F2 measured by SPR (Fig. S4) to examine the role of fluorination (FHPLYNFGCWTKSG; Parent Ep-F2 is printed as Ac-(4-F-DPhe)HPLYN(2F-LPhe)GCWTKSG-NH2)		
0.25 nM	CC(C)C[C@@H]1NC(=O)[C@@H]2CCCN2C(=O)[C@H](Cc2c[nH]cn2)NC(=O)[C@@H](Cc2ccc(F)cc2)NC(=O)CSC[C@@H](C(=O)N[C@@H](Cc2c[nH]c3ccccc23)C(=O)N[C@H](C(=O)N[C@@H](CCCCN)C(=O)N[C@@H](CO)C(=O)NCC(N)=O)[C@@H](C)O)NC(=O)CNC(=O)[C@H](Cc2ccc(F)c(F)c2)NC(=O)[C@H](CC(N)=O)NC(=O)[C@H](Cc2ccc(O)cc2)NC1=O [Ep-F2] ({CH2CO}-[dPhe(4-F)]HPLYN[Phe(3,4-F2)]GCWTKSG-NH2; thioether N-9)		
	CC[C@H](C)[C@@H]1NC(=O)[C@H](CC(C)C)NC(=O)[C@@H](Cc2ccc(O)cc2)NC(=O)CSC[C@@H](C(=O)NCC(N)=O)NC(=O)[C@H](C(C)C)NC(=O)[C@H](CCCNC(=N)N)NC(=O)[C@H](Cc2ccccc2)NC(=O)[C@@H]2CCCN2C(=O)[C@H](Cc2c[nH]cn2)NC(=O)[C@H](CO)NC(=O)[C@H](CCCNC(=N)N)NC(=O)[C@H](CO)NC(=O)[C@H](Cc2ccc(O)cc2)NC(=O)[C@H](Cc2c[nH]c3ccccc23)NC1=O [BAM-D1] ({CH2CO}-[dY]LIWYSRSHPFRVCG-NH2; thioether N-14)	0.43 ×10 4 M-1s-1	763 nM

Source: PMC11310889, “Ribosomal translation of fluorinated non-canonical amino acids for de novo biologically active fluorinated macrocyclic peptides” (Chemical Science, 2024)
